Consider two compounds from patent US9493464B2, “Wee1 degradation inhibitors” (The Scripps Research Institute, priority 2012, dated 2016).

Experiment [1] concerns cerebellar granule cell progenitors (GCPs). In words: In vitro proliferation of cerebellar granule cell progenitors (3H-thymidine uptake). Conditions: 24 hours; result in words. It is filed as cell-based, mouse. On the procedure:
GCPs were incubated with DMSO, 5 μM D4476 (known CK1δ and CK1ε inhibitor), or 50 μM D4476 and processed for ^3H-thymidine incorporation after 24 hours. A representative experiment performed in triplicate is shown.

In a further experiment the target is T1, LKB1 (Homo sapiens, UniProt Q15831).
T1 construct: Reaction Biology Corporation (inferred: panel performed there)
T1 sequence (Q15831 1-433): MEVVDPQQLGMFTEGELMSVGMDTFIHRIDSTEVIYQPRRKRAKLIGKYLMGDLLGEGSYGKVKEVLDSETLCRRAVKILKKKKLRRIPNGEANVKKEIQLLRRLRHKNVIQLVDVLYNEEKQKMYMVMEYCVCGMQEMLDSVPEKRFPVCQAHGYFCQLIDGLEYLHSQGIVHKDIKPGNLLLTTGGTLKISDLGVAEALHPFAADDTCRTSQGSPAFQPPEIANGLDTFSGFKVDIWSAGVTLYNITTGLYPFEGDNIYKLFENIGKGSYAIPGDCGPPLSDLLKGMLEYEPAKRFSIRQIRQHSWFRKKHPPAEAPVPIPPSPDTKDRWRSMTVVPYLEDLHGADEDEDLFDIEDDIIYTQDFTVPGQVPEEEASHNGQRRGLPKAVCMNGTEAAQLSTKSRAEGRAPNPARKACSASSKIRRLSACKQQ
T1 sequence (Q7RTN6 1-431 partner): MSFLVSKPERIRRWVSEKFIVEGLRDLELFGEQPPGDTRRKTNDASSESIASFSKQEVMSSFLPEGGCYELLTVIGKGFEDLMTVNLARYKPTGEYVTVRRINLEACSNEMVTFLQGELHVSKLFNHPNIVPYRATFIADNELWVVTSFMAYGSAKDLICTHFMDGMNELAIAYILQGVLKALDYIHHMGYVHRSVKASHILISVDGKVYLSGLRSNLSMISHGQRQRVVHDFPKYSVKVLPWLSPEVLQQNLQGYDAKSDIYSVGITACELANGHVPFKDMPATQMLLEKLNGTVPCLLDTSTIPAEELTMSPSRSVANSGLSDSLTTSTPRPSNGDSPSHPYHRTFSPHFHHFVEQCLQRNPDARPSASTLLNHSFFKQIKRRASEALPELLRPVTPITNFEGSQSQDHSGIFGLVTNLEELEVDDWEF
T1 sequence (Q9Y376 1-341 partner): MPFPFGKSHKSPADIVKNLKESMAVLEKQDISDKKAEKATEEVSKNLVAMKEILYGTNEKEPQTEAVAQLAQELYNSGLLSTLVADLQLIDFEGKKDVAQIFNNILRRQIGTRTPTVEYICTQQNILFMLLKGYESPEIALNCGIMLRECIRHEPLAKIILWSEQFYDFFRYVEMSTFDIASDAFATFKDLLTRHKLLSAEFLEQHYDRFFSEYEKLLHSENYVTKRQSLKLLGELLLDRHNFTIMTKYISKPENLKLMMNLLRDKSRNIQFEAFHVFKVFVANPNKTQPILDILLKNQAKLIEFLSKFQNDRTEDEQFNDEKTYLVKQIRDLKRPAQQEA
In words: In vitro kinase assay, LKB1. It is filed as biochemical. On the procedure:
(§1) Compounds were tested in 10-dose IC50 mode with 3-fold serial dilution starting at 50 μM. […] Reactions were carried out at 10 μM ATP. Average and standard deviations of reactions carried out in triplicate are shown.
(§2) In vitro kinase assay to detect CK1 or FLT3 activity: CK1 and FLT3 assays as well as complete kinase profile of 296 kinases was performed by Reaction Biology Corporation. For FLT3 20 μM final Abltide was used, sequence: [[…]]. For CK1 (all isoforms) 20 μM CK1 tide was used, sequence: [KRRRAL[pS]VASLPGL] in a standard kinase assay with ^32P-ATP and purified kinase. Incorporation of ^32P-ATP into the peptide was measured after a filter-binding assay. In-house CK1d inhibition assays were performed using a standard homogenous time-resolved fluorescence resonance energy transfer (TR-FRET) format in 50 mM Hepes, pH 7.0, 2.5 mM MgCl2, 0.1 mg/ml bovine serum albumin, 1 mM DL-dithiothreitol, 0.01% Triton X-100 (all from Sigma-Aldrich). […] Assays were performed in the presence of 2 μL of compound at different (measured) concentrations, and reactions were stopped by adding 10 μL of 4 nM Eu-anti-p-Topo-IIa (PerkinElmer) in Lance Detection Buffer (Perkin Elmer). Upon excitation of the Eu-labeled antibody, energy is transferred to the acceptor dye resulting in the emission of detected light at 665 nm.

The subject of a further experiment is A498 (renal). Kind of experiment: NCI Dose Growth Inhibition assay (NCI-60). It is filed as cell-based. As to conditions: Homo sapiens. On the procedure:
(§3) Table 3, below, illustrates the activity of some of the compounds of the present invention in the National Cancer Institute's Dose Growth Inhibition assay against several human tumor cell lines selected from the NCI-60 panel.
(§4) NCI-60 Cancer Cell Line Screening was performed by the National Cancer Institute, using the procedures described on their website (http://dtp.nci.nih.gov/branches/btb/ivelsp.html)

The test system of a further experiment is SNB-75 (CNS). Kind of experiment: NCI Dose Growth Inhibition assay (NCI-60). It is filed as cell-based. Conditions: Homo sapiens. The procedure: as §3, §4
For the next experiment, the system named is MDA-MB-468 (breast). Kind of experiment: NCI Dose Growth Inhibition assay (NCI-60). As to conditions: Homo sapiens. It is filed as cell-based. The procedure: as §3, §4
Another experiment deals with COLO 205 (colon). Kind of experiment: NCI Dose Growth Inhibition assay (NCI-60). It is filed as cell-based. Conditions: Homo sapiens. On the procedure: as §3, §4
A further experiment relates to cyclin dependent kinases. In words: Kinase activity, cyclin dependent kinases. It is filed as biochemical. As to conditions: result in words. The text has this:
CNS neurogenesis requires Cdk1 activity regulated by the phosphatase Cdc25 and the tyrosine kinase Wee1[1]. Cdk1 activity decreases in normal adult neurons and is reactivated in neurological diseases such as Alzheimer's[2]. A major mechanism controlling Cdk1 activity in neurons is Wee1 degradation via the ubiquitin proteasome pathway. It was sought to identify pathways controlling neuronal Wee1 degradation using cerebellar granule cells and a reporter of Wee1 turnover, K328M-Wee1-Luciferase[4].

The subject of the next experiment is 296 kinases. Kind of experiment: Kinase profile of 296 kinases (Reaction Biology Corporation). It is filed as biochemical. As to conditions: result in words.
In the next experiment the target is T2, CK1ε (Homo sapiens, UniProt P49674).
T2 construct: Reaction Biology Corporation (contract assay)
T2 sequence (P49674 whole entry): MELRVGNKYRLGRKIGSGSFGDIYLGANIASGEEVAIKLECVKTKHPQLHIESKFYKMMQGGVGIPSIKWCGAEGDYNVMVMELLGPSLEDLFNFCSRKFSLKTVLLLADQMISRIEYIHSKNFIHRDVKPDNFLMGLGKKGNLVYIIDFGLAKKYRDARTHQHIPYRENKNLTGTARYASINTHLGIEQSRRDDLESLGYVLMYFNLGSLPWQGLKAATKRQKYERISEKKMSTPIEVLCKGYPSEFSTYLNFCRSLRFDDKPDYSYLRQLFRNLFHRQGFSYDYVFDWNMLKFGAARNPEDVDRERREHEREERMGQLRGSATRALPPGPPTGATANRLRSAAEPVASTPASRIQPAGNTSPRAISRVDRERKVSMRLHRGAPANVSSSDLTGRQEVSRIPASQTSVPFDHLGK
In words: In vitro kinase assay, CK1ε (Reaction Biology Corporation). It is filed as biochemical. As to conditions: 10 μM ATP. The procedure: as §1, §2

A further experiment has as its system endogenous Wee1. Kind of experiment: Western blot of endogenous Wee1. It is filed as cell-based. Conditions: result in words. On the procedure:
The percentage of signal relative to the proteasome inhibitor MG132 is shown. […] A Western blot is shown of endogenous Wee1 or Skp1 (loading control) of HeLa cells incubated with 5 μM of indicated compounds for 24 hours. […] The 0 time point was set to 100%. […] The extent of degradation was measured as in FIG. D.

Like-named read-outs stand apart in the source and are kept apart here.

For the compound `O=[N+]([O-])c1cccc2[nH]c(CNc3nc(N4CCOCC4)nc4c3ncn4-c3ccsc3)nc12` [SR-1277], in experiment [1], the “inhibition of GCP proliferation (3H-thymidine)” value is “robust inhibition”. The “activity toward LKB1” value at LKB1 (result in words) is “inactive”. In addition, the 50% growth inhibitory concentration (GI50) with A498 (renal) (A498) is 17 nM; in the experiment on SNB-75 (CNS) (SNB-75), under 10 nM; with MDA-MB-468 (breast) (MDA-MB-468), under 10 nM; with COLO 205 (colon) (COLO 205), 15 nM.

Regarding `c1ccc2[nH]c(CNc3nc(N4CCOCC4)nc4c3ncn4-c3ccsc3)nc2c1` [SR-653234], in experiment [1], the “inhibition of GCP proliferation (3H-thymidine)” value was “robust inhibition”. Besides, in the experiment on cyclin dependent kinases, the “activity toward cyclin dependent kinases” value is listed as “does not show any appreciable activity”. The IC50 at LKB1 turned out to be 92 nM; against CK1ε it was 100 nM. Moreover, the GI50 turned out to be 72 nM in the experiment on A498 (renal) (A498 (renal), read-out: GI50); 25 nM with SNB-75 (CNS) (SNB-75 (CNS), read-out: GI50); 16 nM with MDA-MB-468 (breast) (MDA-MB-468 (breast), read-out: GI50); 26 nM with COLO 205 (colon) (COLO 205 (colon), read-out: GI50). In the experiment on 296 kinases, the “selectivity among 296 kinases” value is reported as “highly selective for casein kinase”. Besides, the “steady-state levels of endogenous Wee1” value in the experiment on endogenous Wee1 is reported as “increased the steady-state levels of endogenous Wee1”.

One may read the GI50 as the concentration giving 50% growth inhibition. The IC50 is the midpoint of a concentration-inhibition curve. A higher IC50 goes with weaker potency in that assay.
